According to US6358883B1, “Pesticidal and parasiticidal use of 1-aryl-1-(substituted thio, sulfinyl and sulfonyl)-2-nitroethane compounds” (American Cyanamid Company, priority 1998, dated 2002):

Experiments:
Assay type in all cases: in vivo
[1] = tested on: C. elegans (Bristol strain); experiment: Evaluation of test compounds against C. elegans (motility, 96-well plate); parameters: key: 9=complete kill in 4 hours; 8=complete kill in 24 hours; 7=markedly reduced motility in approximately 95% of worms in 24 hours; 0=normal motility, same as controls; conditions: motility at 4 and 24 hours
In short: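 Bristol-strain C. elegans in Na buffer added to wells containing dried compound (applied in 80% acetone) and incubated at 20 °C. Motility of adults and larvae scored subjectively but semi-quantitatively under a dissecting microscope at 4 and 24 h after immersion, plates tapped before reading.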

[2] = tested on: Aphis gossypii, cotton aphid (CA); experiment: Cotton aphid (CA) cotyledon dip test; parameters: key: 0 = no effect; 1 = 10-25% kill; 2 = 26-35% kill; 3 = 36-45% kill; 4 = 46-55% kill; 5 = 56-65% kill; 6 = 66-75% kill; 7 = 76-85% kill; 8 = 86-99% kill; 9 = 100% kill; conditions: mortality after 5 days
In short: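 Cotyledon-stage cotton plants infested overnight via a heavily infested leaf, then dipped in test solution (compound in 35% acetone/water, diluted with water) and dried. Mortality counted after 5 days.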

[3] = tested on: M. incognita (Root Knot Nematode) larvae; experiment: Evaluation of test compounds against M. incognita larvae in microtiter plate wells (movement score); conditions: larvae scored for movement after 20-24 hours; note: key: A score of '9' indicates inactive worms with a straight, sticklike morphology; A score of '8' indicates inactive worms with a limp, curled or curved morphology; A score of '7' indicates dead/paralyzed worms after 72 hours
In short: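 Newly emerged M. incognita larvae in S Medium (buffered salt solution), 50-65 worms per well, exposed to test compounds in sealed microtiter wells. Movement scored after 20-24 h incubation; wells with obviously dead/paralyzed larvae scored positive. A score of "7" denotes dead/paralyzed worms after […].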

[4] = tested on: Tetranychus urticae (OP-resistant strain), 2-spotted spider mite (TSM); experiment: 2-spotted spider mite (TSM) plant dip test; parameters: key: 0 = no effect; 1 = 10-25% kill; 2 = 26-35% kill; 3 = 36-45% kill; 4 = 46-55% kill; 5 = 56-65% kill; 6 = 66-75% kill; 7 = 76-85% kill; 8 = 86-99% kill; 9 = 100% kill; conditions: mortality after 2 days
In short: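 OP-resistant mites (~100 per leaf) were transferred onto Sieva lima bean primary leaves about 2 h before treatment. Infested plants were dipped for 3 s in compound from a 10,000 ppm stock in 35% acetone/water, diluted with water. Mortality was counted after 2 days.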

[5] = tested on: Spodoptera eridania, eggs-southern armyworm (SAW-Eggs); experiment: Southern armyworm eggs (SAW-Eggs) treated diet test; parameters: key: 0 = no effect; 1 = 10-25% kill; 2 = 26-35% kill; 3 = 36-45% kill; 4 = 46-55% kill; 5 = 56-65% kill; 6 = 66-75% kill; 7 = 76-85% kill; 8 = 86-99% kill; 9 = 100% kill; conditions: mortality after 7 days
Procedure: (§1) Test solutions are prepared by dissolving the test compound in a 35% acetone in water mixture to give a concentration of 10,000 ppm. Subsequent dilutions are made with water as needed. Spodoptera eridania, Eggs-southern Armyworm and Diabrotica undecimpunctata howardi, Eggs-southern Corn Rootworm (SAW-Eggs) and (SCR-Eggs) Wells containing artificial diet are treated with the test solutions and dried. The appropriate insect eggs are then placed in the wells. The wells are covered with vented, adhesive, clear plastic covers. After 7 days, mortality counts are made. [table]

[6] = tested on: Diabrotica virgifera virgifera Leconte, 2nd instar western corn rootworm (WCR); experiment: Western corn rootworm (WCR) soil test; parameters: key: 0 = no effect; 1 = 10-25% kill; 2 = 26-35% kill; 3 = 36-45% kill; 4 = 46-55% kill; 5 = 56-65% kill; 6 = 66-75% kill; 7 = 76-85% kill; 8 = 86-99% kill; 9 = 100% kill
In short: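 Compound in 35% acetone/water applied to talc at 1.25 mg active ingredient per jar (about 50 kg/ha), solvent evaporated, then mixed with millet seed and moist soil. Ten 2nd-instar larvae per jar; mortality counted after 5 days, missing larvae scored dead.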

[7] = tested on: Spodoptera eridania, 2nd instar larvae, southern armyworm (SAW); experiment: Southern armyworm (SAW) leaf dip test; parameters: key: 0 = no effect; 1 = 10-25% kill; 2 = 26-35% kill; 3 = 36-45% kill; 4 = 46-55% kill; 5 = 56-65% kill; 6 = 66-75% kill; 7 = 76-85% kill; 8 = 86-99% kill; 9 = 100% kill
In short: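 Compound is dissolved at 10,000 ppm in 35% acetone/water, then diluted with water. Lima bean leaves are dipped for 3 seconds, dried and placed with ten 2nd instar larvae on damp filter paper. Mortality, reduced feeding and molting interference are scored at 5 days.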

[8] = tested on: Diabrotica undecimpunctata howardi, eggs-southern corn rootworm (SCR-Eggs); experiment: Southern corn rootworm eggs (SCR-Eggs) treated diet test; parameters: key: 0 = no effect; 1 = 10-25% kill; 2 = 26-35% kill; 3 = 36-45% kill; 4 = 46-55% kill; 5 = 56-65% kill; 6 = 66-75% kill; 7 = 76-85% kill; 8 = 86-99% kill; 9 = 100% kill; conditions: mortality after 7 days
Procedure: as §1

| Compound | Rating Against C. elegans (150 ppm) [1] | CA (300 ppm) rating [2] | M. incognita (150 ppm) score [3] | TSM (300 ppm) rating [4] | SAW Eggs (300 ppm) rating [5] | WCR (50 ppm) rating [6] | SAW (300 ppm) rating [7] | SCR Eggs (1000 ppm) rating [8] |
| --- | --- | --- | --- | --- | --- | --- | --- | --- |
| CC(C)CCCCCOC(=O)CSC(C[N+](=O)[O-])c1ccc(F)cc1 (centres unmarked) [Example 11] | 0 | 0 | 0 | 0 | 0 | 0 | 0 |  |
| CCCCC(CC)COC(=O)CSC(C[N+](=O)[O-])c1ccc(F)cc1 (centres unmarked) [Example 12] | 0 | 0 | 0 | 0 | 0 | 0 | 0 |  |
| O=[N+]([O-])CC(SCc1ccccc1)c1ccc(F)cc1 (centres unmarked) [Example 13] | 8 | 7 (7 = 76-85% kill) | 0 | 0 | 0 | 0 | 0 |  |
| CCCSC(C[N+](=O)[O-])c1ccc(F)cc1 (centres unmarked) [Example 14] | 0 | 0 | 0 | 0 | 0 | 0 | 0 |  |
| COC(=O)CSC(C[N+](=O)[O-])c1ccc(F)cc1 (centres unmarked) [Example 15] | 9 | 0 | 9 | 0 | 0 | 3 (3 = 36-45% kill) | 0 |  |
| CCOC(=O)CSC(C[N+](=O)[O-])c1ccc(F)cc1 (centres unmarked) [Example 16] | 8 | 0 | 9 | 0 | 0 | 0 | 0 |  |
| CCCCOC(=O)CSC(C[N+](=O)[O-])c1ccc(F)cc1 (centres unmarked) [Example 17] | 8 | 0 | 9 | 5 (5 = 56-65% kill) | 0 | 0 | 0 |  |
| COC(=O)CSC(C[N+](=O)[O-])c1cccc([N+](=O)[O-])c1 (centres unmarked) [Example 138] |  | 0 | 0 | 0 | 0 | 0 | 0 | 0 |
| O=C(O)CSC(C[N+](=O)[O-])c1cccnc1 (centres unmarked) [Example 179] |  | 0 | 9 | 0 | 0 | 0 | 0 | 0 |
| O=C(O)CSC(C[N+](=O)[O-])c1cccs1 (centres unmarked) [Example 181] |  | 0 | 9 | 0 | 9 (9 = 100% kill) | 0 | 0 | 0 |
| COC(=O)CSC(C[N+](=O)[O-])c1cccs1 (centres unmarked) [Example 182] |  | 0 | 9 | 0 | 0 | 0 | 0 | 0 |
| CCOC(=O)CSC(C[N+](=O)[O-])c1cccs1 (centres unmarked) [Example 183] |  | 0 | 9 | 0 | 0 | 0 | 0 | 0 |
| CCCCOC(=O)CSC(C[N+](=O)[O-])c1cccs1 (centres unmarked) [Example 184] |  | 0 | 9 | 0 | 9 (9 = 100% kill) | 0 | 0 | 0 |
| O=C(CSC(C[N+](=O)[O-])c1cccs1)OCc1ccccc1 (centres unmarked) [Example 185] |  | 0 | 9 | 0 | 0 | 0 | 0 | 0 |
| CCCSC(C[N+](=O)[O-])c1cccs1 (centres unmarked) [Example 186] |  | 0 | 0 | 0 | 0 | 4 (4 = 46-55% kill) | 4 (4 = 46-55% kill) | 0 |
| C=CCSC(C[N+](=O)[O-])c1cccs1 (centres unmarked) [Example 187] |  | 0 | 9 | 0 | 0 | 0 | 0 | 0 |
| O=[N+]([O-])CC(SCc1ccccc1)c1cccs1 (centres unmarked) [Example 188] |  | 0 | 9 | 0 | 0 | 3 (3 = 36-45% kill) | 0 | 0 |
| O=C(O)CSC(C[N+](=O)[O-])c1cc(Br)cs1 (centres unmarked) [Example 190] |  | 0 |  | 0 | 0 | 0 | 0 | 0 |
| COC(=O)CSC(C[N+](=O)[O-])c1cc(Br)cs1 (centres unmarked) [Example 191] |  | 0 |  | 0 | 0 | 0 | 0 | 0 |
| CCOC(=O)CSC(C[N+](=O)[O-])c1cc(Br)cs1 (centres unmarked) [Example 192] |  | 0 |  | 0 | 0 | 0 | 0 | 0 |
| CCCOC(=O)CSC(C[N+](=O)[O-])c1cc(Br)cs1 (centres unmarked) [Example 193] |  | 0 |  | 0 | 0 | 0 | 0 | 0 |
| CCCCOC(=O)CSC(C[N+](=O)[O-])c1cc(Br)cs1 (centres unmarked) [Example 194] |  | 0 |  | 0 | 0 | 0 | 0 | 0 |
| O=[N+]([O-])CC(SCc1ccccc1)c1cc(Br)cs1 (centres unmarked) [Example 195] |  | 0 |  | 0 | 0 | 0 | 0 | 0 |
